The text below walks through data of patent US9480638B2, “Cosmetic composition containing extracts of Adenophora triphylla var. japonica Hara, Angelica tenuissima and medicinal herbs” (AMOREPACIFIC CORPORATION, priority 2008, dated 2016).

Experiment [1] is described as follows: Test of antioxidant effect (DPPH test). The format is biochemical. The note with it: sample concentration at which absorbance at 540 nm is reduced by 50%; 100 μM DPPH in ethanol, 37° C., 30 minutes. The procedure:
To confirm the antioxidant effect of the composition according to the present invention, the DPPH oxidation inhibitory effect of the composition was measured. As a control, the synthetic antioxidant Trolox was used. […] The reaction solution was allowed to react at 37° C. for 30 minutes, and then measured for absorbance at 540 nm. As a control sample, the widely used synthetic antioxidant Trolox was used. In Table 1, IC50 means the sample concentration at which the absorbance is reduced by 50%.

For a further experiment, the target named is T1, PPARα (Mus musculus, UniProt P23204).
T1 sequence (P23204 1-468): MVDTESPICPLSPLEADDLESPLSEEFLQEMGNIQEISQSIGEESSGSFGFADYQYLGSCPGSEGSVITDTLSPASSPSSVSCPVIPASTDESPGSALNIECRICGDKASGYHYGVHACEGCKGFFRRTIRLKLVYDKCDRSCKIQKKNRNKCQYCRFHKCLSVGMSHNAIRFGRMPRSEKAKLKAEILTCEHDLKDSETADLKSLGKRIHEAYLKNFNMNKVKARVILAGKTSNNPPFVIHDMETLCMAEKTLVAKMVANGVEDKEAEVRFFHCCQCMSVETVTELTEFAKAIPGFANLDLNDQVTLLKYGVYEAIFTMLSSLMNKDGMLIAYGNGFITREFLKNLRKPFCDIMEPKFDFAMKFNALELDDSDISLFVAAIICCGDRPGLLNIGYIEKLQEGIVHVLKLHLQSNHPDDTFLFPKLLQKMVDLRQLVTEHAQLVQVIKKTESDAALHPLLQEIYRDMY
Kind of experiment: PPARα activation, PPRE promoter/luciferase reporter in transfected HaCaT cells. Conditions: 10 uM positive control, PPARα expression plasmid + PPRE reporter, Control = 100.

Procedure for PPARα: Human keratinocyte HaCaT cells were subcultured in 10% fetal bovine serum-containing DMEM medium, which is a phenol red-free medium, in order to eliminate the effect caused by the phenol red's estrogen.
HaCaT cells were seeded into a 24-well plate at a density of 5×10^4 cells/well, cultured for 24 hours, and then transiently transfected with the plasmid genes. […] As a negative control group, a group treated with ethanol used to dissolve the samples was used. After 24 hours of culture, the cells were washed with PBS, harvested and measured for luciferase activity.

Turning to `Cc1c(C)c2c(c(C)c1O)CCC(C)(C(=O)O)O2` (centres unmarked) [Trolox], the “IC50 (DPPH analysis)” value in experiment [1] is 65 ppm. Regarding `Cc1cccc(Nc2cc(Cl)nc(SCC(=O)O)n2)c1C` [WY-14643, Wy-14,643], the luciferase activity on PPARα stood at 300.
